Data set [1] can be described thus: in vitro. The following applies: human, HeLa cells.
Data set [2] can be described thus: in vitro. The following applies: human, HeLa cells, Cell viability (%) (±St. Dev.; n = 3).
In another data set the test system is HeLa cells. Kind of data set: GFP-NLS protein transduction assay (flow cytometry: Pos cells %, viability %, relative fluorescence intensity; microscopy). The following applies: GFP-NLS 5 μM; for Cell viability (%) (±St. Dev.; n = 3): Protocol B; for Cell viability (%) (±St. Dev.; n = 3) / FIG. 21B Cell viability (%) (±St. Dev.; n = 3): HeLa; for FIG. 21B Cell viability (%) (±St. Dev.; n = 3): Table 8.1, 1 hour; for cell viability: peptide 20 μM, Protocol B (Table 10.3e).

Where [3] appears, read: Table 10.1, shuttle 50 μM, 10 seconds.
The mark [4] stands for this setting: Table 10.3a, shuttle 50 μM, 10 seconds.
Where [5] appears, read: Table 10.3e, shuttle 20 μM, 1 minute.

Ends that are not written are not given here. Peptide text beside a SMILES is read from it.

Regarding `CC[C@H](C)[C@H](N)C(=O)N[C@H](C(=O)N[C@@H](CCCNC(=N)N)C(=O)N[C@@H](Cc1c[nH]cn1)C(=O)N[C@@H](CCC(=O)O)C(=O)N[C@@H](Cc1c[nH]cn1)C(=O)N[C@@H](CS)C(=O)N[C@@H](CCSC)C(=O)N[C@H](C(=O)N[C@@H](Cc1c[nH]cn1)C(=O)N[C@@H](CC(C)C)C(=O)N[C@@H](Cc1c[nH]c2ccccc12)C(=O)N[C@@H](Cc1ccc(O)cc1)C(=O)N[C@@H](CCCCN)C(=O)N[C@@H](CC(N)=O)C(=O)N[C@@H](CC(C)C)C(=O)N[C@@H](C)C(=O)N[C@@H](CCCCN)C(=O)N[C@@H](Cc1ccc(O)cc1)C(=O)N[C@@H](CS)C(=O)N[C@@H](CO)C(=O)N[C@H](C(=O)N[C@@H](CO)C(=O)N[C@@H](Cc1c[nH]cn1)C(=O)N[C@@H](C)C(=O)N[C@@H](CCCNC(=N)N)C(=O)N[C@@H](CCCNC(=N)N)C(=O)N[C@@H](CC(C)C)C(=O)N[C@@H](C)C(=O)N[C@@H](CCCNC(=N)N)C(=O)N[C@@H](CCCNC(=N)N)C(=O)N[C@@H](CCCNC(=N)N)C(=O)N[C@@H](C)C(=O)N[C@@H](Cc1c[nH]cn1)C(=O)N[C@@H](Cc1c[nH]cn1)C(=O)O)[C@@H](C)O)[C@@H](C)CC)C(C)C` [FSD32] (H-IVRHEHCMIHLWYKNLAKYCSTSHARRLARRRAHH-OH), the viability in the data set “in vitro [1]” is 98.36 ± 0.15%. This compound displayed a viability at 1 min, 10 µM in “in vitro [2]” of 99.2 ± 3.37%.
“HHHHHHKWKLFKKIGAVLKVLTTGRRRRRRRRR [His-CM18-9Arg]” had a viability in “in vitro [1]” of 31.63 ± 0.11%. Moreover, the “Cell viability (%) (±St. Dev.; n = 3)” value in the data set on HeLa cells (setting [3]) is recorded as 45.8 ± 5.4%; in the data set on HeLa cells (setting [4]), 45.8 ± 3.53%.
In the data set “in vitro [1]”, “HHHHHHKWKLFKKIGAVLKVLTTGYARAAARQARAHHHHHH [His-CM18-PTD4-His]” returned a viability of 29.4 ± 2.38%. The “Cell viability (%) (±St. Dev.; n = 3)” value with HeLa cells (Table 10.3c, shuttle 10 μM, incubation 1 min) is 68.1 ± 2.7%; in the data set on HeLa cells (Table 10.3c, shuttle 10 μM, incubation 2 min), 61.6 ± 3.2%; with HeLa cells (Table 10.3c, shuttle 10 μM, incubation 5 min) it was 41.2 ± 4.4%; in the data set with HeLa cells (setting [5]) it was 78.6 ± 1.1%.
For the compound “HHHHHHKWKLFKKIGAVLKVLTTGYGRKKRRQRRR [His-CM18-TAT]”, the viability in “in vitro [1]” is 13.6 ± 0.18%. In addition, the “FIG. 21B Cell viability (%) (±St. Dev.; n = 3)” value in the data set with HeLa cells (shuttle 1 μM) came out at 95 ± 3.05%; in the data set on HeLa cells (shuttle 3 μM), 91 ± 5.18%; with HeLa cells (shuttle 5 μM), 86 ± 4.59%. Also, the “Cell viability (%) (±St. Dev.; n = 3)” value in the data set on HeLa cells (setting [3]) and with HeLa cells (setting [4]) was 35.2 ± 5.7% in each case.
In the case of “HHHKWKLFKKIGAVLKVLTTGYARAAARQARA [3His-CM18-PTD4]”, in the data set “in vitro [1]”, the viability was 82 ± 6.81%. In addition, in the data set with HeLa cells (setting [5]), the “Cell viability (%) (±St. Dev.; n = 3)” value turned out to be 39.2 ± 3.3%.
On to “KWKLFKKIGAVLKVLTTG [CM18, reference compound]”, for which, in “in vitro [1]”, the viability came to 99.4 ± 0.14%. Also, the “Cell viability (%) (±St. Dev.; n = 3)” value with HeLa cells (Table 10.4, peptide 50 μM, 10 seconds) is reported as 95 ± 1.2%.
For the compound “KWKLFKKIGAVLKVLTTGGGSGGGSYARAAARQARA [CM18-L2-PTD4]”, in “in vitro [1]”, the viability stood at 93.7 ± 3.07%. For the same compound, the “Cell viability (%) (±St. Dev.; n = 3)” value in the data set on HeLa cells (setting [5]) is 64.0 ± 1.3%. For the same compound, in the data set on HeLa cells (1 minute), the cell viability entry is “increased cell viability”.
Taken in the same sequence, the figures for “KWKLFKKIGAVLKVLTTGGGSYARAAARQARA [CM18-L1-PTD4]” were 84.3 ± 5.64%, 50.1 ± 3.8% and “increased cell viability”.
Consider “KWKLFKKIGAVLKVLTTGYARAAARQARA [CM18-PTD4]”, for which the viability in the data set “in vitro [1]” came out at 49.6 ± 5.06%. Besides, the “Cell viability (%) (±St. Dev.; n = 3)” value in the data set with HeLa cells (setting [5]) is recorded as 33.9 ± 3.7%. In addition, the cell viability in the data set on HeLa cells (1 minute) was determined as 33.9%.
“YGRKKRRQRRRCKWKLFKKIGAVLKVLTTG [TAT-CM18]” returned a viability in “in vitro [1]” of 44.8 ± 4.17%. For the same compound, the “Cell viability (%) (±St. Dev.; n = 3)” value is 23.5 ± 1.1% with HeLa cells (setting [3]) and 23.5 ± 1.1% in the data set with HeLa cells (Table 10.3b, shuttle 50 μM, 10 seconds).

For orientation: viability means the share of living cells, or the viability signal relative to a control. As usually defined, the cell viability is a per cent measure of how many cells are alive, often set against a control. A high value points to better survival.

Source of the values: patent publication US12286632B2, “Rationally-designed synthetic peptide shuttle agents for delivering polypeptide cargos from an extracellular space to the cytosol and/or nucleus of a target eukaryotic cell, uses thereof, methods and kits relating to same” (Feldan Bio Inc., priority 2016, dated 2025).
